Measured values as given in US5494927A, “3,5-di-tertiarybutyl-4-hydroxyphenylmethylene derivatives of 2-substituted thiazolidinones, oxazolidinones, and imidazolidinones as antiinflammatory agents” (priority 1994, dated 1996).
“And” between values parts separate entries of the source, which are not always exact repeats. Identical values can stand only once. Counter-ions that a name gives are not always drawn.

Tests used:
5-lipoxygenase = molecular target: T1, 5-lipoxygenase (Rattus norvegicus, UniProt P12527); assay: ARBL whole cell 5-lipoxygenase assay (LTB4 formation in RBL-1 cells); format: cell-based; conditions: for IC50: A23187 stimulated, read-out: ARBL IC50 for LTB4 inhibition; for inhibition at 10 µM: read-out: ARBL % inhibition of LT
T1 construct: host or cells: RBL-1 rat basophilic leukemia cells
T1 sequence (P12527 1-673): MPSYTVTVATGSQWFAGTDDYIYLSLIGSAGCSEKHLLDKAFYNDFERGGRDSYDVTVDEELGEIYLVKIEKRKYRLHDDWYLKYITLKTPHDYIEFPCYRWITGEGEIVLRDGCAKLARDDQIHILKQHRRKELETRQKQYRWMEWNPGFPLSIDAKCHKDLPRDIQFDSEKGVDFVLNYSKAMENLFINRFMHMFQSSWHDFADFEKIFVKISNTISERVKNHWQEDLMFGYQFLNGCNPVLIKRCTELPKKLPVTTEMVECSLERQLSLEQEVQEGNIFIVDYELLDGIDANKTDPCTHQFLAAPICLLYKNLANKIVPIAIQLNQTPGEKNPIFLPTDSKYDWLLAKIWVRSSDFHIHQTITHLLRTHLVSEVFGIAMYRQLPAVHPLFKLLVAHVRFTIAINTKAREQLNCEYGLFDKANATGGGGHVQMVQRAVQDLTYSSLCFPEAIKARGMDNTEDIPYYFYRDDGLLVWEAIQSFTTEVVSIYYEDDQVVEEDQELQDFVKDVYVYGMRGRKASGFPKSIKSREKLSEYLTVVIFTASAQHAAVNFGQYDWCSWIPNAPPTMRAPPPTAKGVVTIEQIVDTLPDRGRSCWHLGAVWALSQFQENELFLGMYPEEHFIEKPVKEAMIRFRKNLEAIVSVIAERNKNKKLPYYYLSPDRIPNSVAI
Procedure: (§1) ARBL/ARBC WHOLE CELL 5-LIPOXYGENASE AND CYCLOOXYGENASE ASSAYS
(§2) The rat basophilic leukemia cell line (RBL-1) was obtained from the American Type Culture Collection (Rockville, Md.).
(§3) Radioimmunoassay (RIA) kits of LTB4 and PGF2.sbsb.α were obtained from Amersham (Arlington Heights, Ill.) and Seragen (Boston, Me.), respectively.
(§4) All tissue culture media were obtained from GIBCO (Grand Island, N.Y.).
(§5) RBL-1 cells are grown in suspension culture in Eagle's minimum essential medium supplemented with 12% fetal bovine serum at 37° C. in an incubator supplied with air-5% carbon dioxide. Cells are harvested by centrifugation. They are washed with cold phosphate buffered saline pH 7.4 (PBS; NaCl, 7.1 g; Na2 HPO4, 1.15 g; KH2 PO4, 0.2 g; and KCl, 0.2 g/L). Cells are finally suspended in PBS containing 1.0 mM calcium at a density of 2×10^6 cells/mL. Cells are incubated with and without test agent (in DMSO) (1% DMSO is without effect on arachidonic acid metabolism) for 10 minutes at room temperature. Calcium ionophore A23187 (5 μM) is added and cells are incubated for 7 minutes at 37° C. The reaction is stopped by chilling the tubes on ice for 10 minutes. Cells are separated by centrifugation and the supernatant is stored at -20°. Aliquots (100 μL) are analyzed for LTB4 and PGF2.sbsb.α using radioimmunoassay kits as provided by the supplier.
(§6) Table I contains biochemical data obtained from this whole cell assay as IC50 s which are calculated as the amount of test compound causing 50% inhibition or % of inhibition at the named micromoles (μM) of LTB4 or PGF2.sbsb.α formation.

cyclooxygenase = assay: ARBC whole cell cyclooxygenase assay (PGF2α formation in RBL-1 cells); format: cell-based, rat; conditions: for IC50: A23187 stimulated; for ARBC % inhibition of PGF2α: @ 10 μM
Procedure: as §1, §2, §3, §4, §5, §6

[1] = test system: carrageenan-induced rat foot paw edema; assay: Carrageenan-induced rat foot paw edema-2 (CFE-2) assay; format: in vivo; conditions: dosed 1 hour before carrageenan, edema at 5 hours
Procedure: Carrageenan-Induced Rat Foot Paw Edema-2
CARRAGEENAN-INDUCED RAT FOOT PAW EDEMA-2 (CFE-2) ASSAY: PROTOCOL
Carageenan solution (1% w/v) is prepared by dissolving 100 mg carrageenan (Marine Colloidal Div., Springfield, N.J.) in 10 mL of sterile saline (0.9%) solution (Travenol). The solution is vortexed for 30 to 45 minutes. Animals are dosed with compound 1 hour before carrageenan challenge. Foot paw edema is induced by injecting 0.10 mL of the 1% carrageenan subcutaneously into the plantar portion of the right hind paw of each rat under light anesthesia. Initial foot paw volume is measured immediately following carrageenan challenge using mercury plethysmography (Buxco Electronics). Edema is measured 5 hours after carrageenan. The difference between the 5-hour and the initial paw volume is expressed as delta edema. The delta edema for each test group of animals is used to calculate the percent inhibition of edema achieved by the compound at the test dose compared with the vehicle control group. The data in Table I (the dose at which swelling is inhibited by the noted percent) is calculated by probit analysis for the dose at which percent inhibition occurs.

[2] = test system: Mycobacterium-induced rat footpad edema; assay: Mycobacterium-induced rat footpad edema assay (MFE); format: in vivo; conditions: for ED40: Rattus norvegicus, swelling 72 hours after Mycobacterium injection, read-out: MFE ID40 (dose at which swelling is inhibited by 40%); for MFE % inhibition of swelling: 72 hours
Procedure: MYCOBACTERIUM-INDUCED RAT FOOTPAD EDEMA ASSAY (MFE): PROTOCOL
Mycobacterium butyricum (5 mg/mL) is suspended in paraffin oil by sonication for 10 minutes in an ice bath. Footpad edema is induced on Day 0 by injecting 0.1 mL of the Mycobacterium mixture into the left hindpaw of lightly anesthetized rats. Swelling in the injected hindpaw is determined by mercury plethysmography 72 hours after injection. Groups of rats are treated with test compounds (suspended in 0.5% hydroxypropyl methylcellulose with 0.2% Tween-80) or vehicle 1 hour before Mycobacterium injection and on Days 1 and 2. Inhibition of swelling is determined by comparing the change in hindpaw volume in compound- and vehicle-treated rats. An ID40 (the dose at which swelling is inhibited by 40%) is calculated by probit analysis or shown as the % inhibition at the dose expressed as μM, i.e., % at μM.

gastric ulcers in rats = assay: Gastric ulcerogenicity (UD); format: in vivo, Wistar rats; set-up: key: N is not active at the dose tested; conditions: @ 200; oral, fasted rats, 6 hours
Procedure: GASTRIC ULCEROGENICITY (UD): PROTOCOL
Male outbred Wistar rats (100-250 g) are fasted for 24 hours. After fasting, test compounds are administered orally (in 2 mL/kg of 0.5% hydroxypropyl methylcellulose) and the rats are denied access to food and water for 6 more hours. The rats are then sacrificed with CO2 so that the stomachs can be removed, opened along the greater curvature, and evaluated for the presence of gastric ulcers. Results are expressed as the percent of rats with gastric ulcers at a given dose or as the UD50 (the dose which causes ulcers in 50% of the rats).

Compound | IC50 (5-lipoxygenase) | IC50 (cyclooxygenase) [nM] | CFE % inhibition of edema ([1]; @ 10) [%] | ARBC % inhibition of PGF2α (cyclooxygenase) [%] | inhibition at 10 µM (5-lipoxygenase) [%] | CFE % inhibition of edema ([1]; @ 30) [%] | also measured
CON(C)C1=NC(=O)/C(=C/c2cc(C(C)(C)C)c(O)c(C(C)(C)C)c2)S1 | 1700 nM | 330 | 41 |  |  |  | ED40 [2]: 13.2 mg/kg
5-[[3,5-Bis(1,1-dimethylethyl)-4-hydroxylphenyl]methylene]-2-[[2-(dimethylamino)ethyl]amino-4(5H-thiazolone, (Z)- [Example 10] |  |  |  | 87 |  |  | 
CC(C)(C)c1cc(/C=C2\SC(N)=NC2=O)cc(C(C)(C)C)c1O [Example 1B, 5-[[3,5-Bis(1,1-dimethylethyl)-4-hydroxyphenyl]methylene]-2-imino-4-thiazolidinone, (Z)-, methanesulfonate (1:1) salt] |  |  |  | 80 | 100 |  | ED40 [2]: < 10 mg/kg; Gastric Ulcerogenicity UD50 (gastric ulcers in rats): N
CC(C)(C)c1cc(/C=C2\SC(=NO)NC2=O)cc(C(C)(C)C)c1O [Example 4, 5-[[3,5-bis(1,1-dimethylethyl)-4-hydroxyphenyl]methylene]-2,4-thiazolidinedione, 2-oxime (Z)-] |  |  | 32 | 81 | 100 | 17 | 
CSC1=NC(=O)/C(=C/c2cc(C(C)(C)C)c(O)c(C(C)(C)C)c2)S1 [Example 5, 5-[[3,5-Bis(1,1-dimethylethyl)-4-hydroxyphenyl]methylene]-2,(methylthio)-4(5H)-thiazolone, (Z)-] | 500 nM and 800 nM | < 600 | 36 |  |  | 47 | MFE % inhibition of swelling ([2]; @ 2): 27%; MFE % inhibition of swelling ([2]; @ 50): 23%
CC(C)(C)c1cc(/C=C2\SC(=NNC(N)=S)NC2=O)cc(C(C)(C)C)c1O [Example 7, 2-[5-[[3,5-Bis(1,1-dimethylethyl)-4-hydroxyphenyl]methylene]-4-oxo-2-thiazolidinylidene]hydrazine-carbothiamide, (Z)-] | 390 nM | 4550 |  |  |  |  | 
CC(C)(C)c1cc(C=C2SC(NC#N)=NC2=O)cc(C(C)(C)C)c1O [Example 9, [5-[[3,5-Bis(1,1-dimethylethyl)-4,hydroxyphenyl]methylene]-4,5-dihydro-4-oxo-2-thiazolyl]cyanamide] |  | 160 |  |  |  | 49 | MFE % inhibition of swelling ([2]; @ 3): 32%
CC(NC1=NC(=O)C(=Cc2cc(C(C)(C)C)c(O)c(C(C)(C)C)c2)S1)C(=O)O (centres unmarked) [Example 12] |  |  |  | 55 | 100 |  | 
